System: B16
Assay: Cytotoxicity against murine B16 cells by MTT assay
Assay type: cell-based
Conditions: Mus musculus

Structure (SMILES)	IC50 [µM]
CC(C)[C@@H](C)/C=C/[C@@H](C)[C@H]1CC[C@@H]2[C@]1(C)CC[C@H]1[C@]23C=C[C@]2(C[C@@H](O)CC[C@]12C)OO3 [ERGOSTEROL PEROXIDE]	77.9
Cc1cc(O)cc2c1C(=O)Oc1cc3c(c(O)c1O2)C(=O)OC3 [VARIOLARIC ACID]	38.7
CCCCCC(=O)Cc1cc(O)cc2c1C(=O)Oc1cc(O)c(C(=O)O)c(CC(=O)CCCCC)c1O2	10.3
COc1cccc2c1C(=O)c1c(O)c3c(c(O)c1C2=O)C[C@@](O)(C(=O)CO)C[C@@H]3O[C@H]1C[C@H](N)[C@H](O)[C@H](C)O1 [DOXORUBICIN]	0.1

Source: ChEMBL document CHEMBL1141386, “Metabolites from the Lichen Ochrolechia parella growing under two different heliotropic conditions” (J Nat Prod, 2007)
